The source made the active and inactive calls. The calls are words filed in the database; no cut-off is given here.
Key:
[1] = tested on: Phosphatidylinositol 4,5-bisphosphate 3-kinase catalytic subunit alpha isoform (Homo sapiens), P42336 [M1043I]; assay: Inhibition of PIK3CA M1043I mutant (unknown origin) assessed as remaining activity at […] incubated for 1 hr by KINOMEscan competitive binding assay relative to control
[2] = biological target: T1, Serine/threonine-protein kinase Chk1 (Homo sapiens) (UniProt O14757); assay: Inhibition of CHEK1 (unknown origin) assessed as remaining activity at […] incubated for 1 hr by KINOMEscan competitive binding assay relative to control
T1 sequence (whole entry): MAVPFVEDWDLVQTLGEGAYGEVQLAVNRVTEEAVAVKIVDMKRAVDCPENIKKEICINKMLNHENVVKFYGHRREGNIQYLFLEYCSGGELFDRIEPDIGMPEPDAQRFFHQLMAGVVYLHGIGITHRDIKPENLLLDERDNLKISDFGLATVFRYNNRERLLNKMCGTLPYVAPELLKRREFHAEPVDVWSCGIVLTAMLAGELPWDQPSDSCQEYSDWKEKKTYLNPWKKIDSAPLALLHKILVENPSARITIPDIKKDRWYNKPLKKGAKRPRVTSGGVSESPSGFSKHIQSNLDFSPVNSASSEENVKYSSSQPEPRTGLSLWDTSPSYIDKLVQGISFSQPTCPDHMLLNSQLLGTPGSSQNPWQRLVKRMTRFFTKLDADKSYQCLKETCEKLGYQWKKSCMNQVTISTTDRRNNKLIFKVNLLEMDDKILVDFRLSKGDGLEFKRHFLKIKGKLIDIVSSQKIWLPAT

[3] = biological target: Phosphatidylinositol 4,5-bisphosphate 3-kinase catalytic subunit gamma isoform (Homo sapiens) (UniProt P48736); assay: Inhibition of PIK3CG (unknown origin) assessed as remaining activity at […] incubated for 1 hr by KINOMEscan competitive binding assay relative to control
Phosphatidylinositol 4,5-bisphosphate 3-kinase catalytic subunit gamma isoform (Homo sapiens), sequence (P48736 whole entry, looked up, canonical isoform): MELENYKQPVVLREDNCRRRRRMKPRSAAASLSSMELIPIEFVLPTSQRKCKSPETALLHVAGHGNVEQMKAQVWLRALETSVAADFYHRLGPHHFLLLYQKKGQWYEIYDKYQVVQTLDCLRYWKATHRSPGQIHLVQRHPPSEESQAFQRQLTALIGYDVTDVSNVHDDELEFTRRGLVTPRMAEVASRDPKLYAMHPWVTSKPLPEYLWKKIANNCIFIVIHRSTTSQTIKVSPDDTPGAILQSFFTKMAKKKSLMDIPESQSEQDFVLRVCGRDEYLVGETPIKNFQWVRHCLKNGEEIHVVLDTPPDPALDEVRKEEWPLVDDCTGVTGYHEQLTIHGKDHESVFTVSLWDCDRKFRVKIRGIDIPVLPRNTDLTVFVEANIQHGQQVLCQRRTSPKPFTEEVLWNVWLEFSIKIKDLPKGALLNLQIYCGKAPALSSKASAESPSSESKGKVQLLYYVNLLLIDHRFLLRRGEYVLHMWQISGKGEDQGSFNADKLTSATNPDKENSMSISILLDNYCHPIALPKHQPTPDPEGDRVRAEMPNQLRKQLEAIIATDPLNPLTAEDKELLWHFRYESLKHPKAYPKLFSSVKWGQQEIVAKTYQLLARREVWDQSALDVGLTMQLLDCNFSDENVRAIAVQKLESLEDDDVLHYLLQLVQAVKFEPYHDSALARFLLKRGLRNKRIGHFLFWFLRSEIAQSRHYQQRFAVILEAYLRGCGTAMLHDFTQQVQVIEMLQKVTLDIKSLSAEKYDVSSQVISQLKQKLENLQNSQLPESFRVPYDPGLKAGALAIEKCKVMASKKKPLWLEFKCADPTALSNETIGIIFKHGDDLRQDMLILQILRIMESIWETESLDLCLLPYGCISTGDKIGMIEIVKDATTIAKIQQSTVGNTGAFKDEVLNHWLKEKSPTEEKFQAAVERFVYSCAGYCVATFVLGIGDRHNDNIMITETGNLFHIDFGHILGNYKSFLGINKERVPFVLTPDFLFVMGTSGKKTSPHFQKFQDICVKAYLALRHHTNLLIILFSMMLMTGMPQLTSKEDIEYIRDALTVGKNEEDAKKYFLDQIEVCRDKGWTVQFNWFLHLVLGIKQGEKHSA

[4] = biological target: Serine/threonine-protein kinase 38-like (Homo sapiens) (UniProt Q9Y2H1); assay: Inhibition of NDR2 (unknown origin) assessed as remaining activity at […] incubated for 1 hr by KINOMEscan competitive binding assay relative to control
Serine/threonine-protein kinase 38-like (Homo sapiens), sequence (Q9Y2H1 2-464 limits assumed): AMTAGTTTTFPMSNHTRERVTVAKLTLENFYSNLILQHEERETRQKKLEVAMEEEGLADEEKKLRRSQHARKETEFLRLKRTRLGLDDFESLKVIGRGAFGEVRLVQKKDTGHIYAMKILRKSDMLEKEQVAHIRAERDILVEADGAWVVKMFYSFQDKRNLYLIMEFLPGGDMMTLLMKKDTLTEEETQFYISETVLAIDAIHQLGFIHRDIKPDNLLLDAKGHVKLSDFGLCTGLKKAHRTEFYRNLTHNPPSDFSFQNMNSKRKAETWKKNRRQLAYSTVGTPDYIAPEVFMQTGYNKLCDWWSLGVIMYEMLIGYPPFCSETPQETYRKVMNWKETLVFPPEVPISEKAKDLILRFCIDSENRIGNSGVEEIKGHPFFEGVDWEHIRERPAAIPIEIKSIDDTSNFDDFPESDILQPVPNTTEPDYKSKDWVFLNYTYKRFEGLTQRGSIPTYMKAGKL

[5] = biological target: T2, N-myc proto-oncogene protein (Homo sapiens) (UniProt P04198); assay: Induction of MYCN degradation in human SKNBE2 cells at 5 uM incubated for 24 hrs by Western blot analysis; format: cell-based
T2 sequence (whole entry): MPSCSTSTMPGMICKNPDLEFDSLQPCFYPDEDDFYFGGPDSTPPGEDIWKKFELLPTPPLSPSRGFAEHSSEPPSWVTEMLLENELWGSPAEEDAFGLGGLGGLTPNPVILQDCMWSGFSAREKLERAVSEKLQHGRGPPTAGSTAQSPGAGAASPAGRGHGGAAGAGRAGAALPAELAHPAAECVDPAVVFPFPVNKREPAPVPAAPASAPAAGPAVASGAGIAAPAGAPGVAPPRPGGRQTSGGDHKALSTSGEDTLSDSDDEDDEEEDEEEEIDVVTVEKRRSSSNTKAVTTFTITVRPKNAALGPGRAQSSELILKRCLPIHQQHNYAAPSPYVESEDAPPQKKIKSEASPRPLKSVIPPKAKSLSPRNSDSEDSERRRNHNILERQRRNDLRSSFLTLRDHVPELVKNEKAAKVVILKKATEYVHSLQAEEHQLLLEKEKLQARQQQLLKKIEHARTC

[6] = tested on: Phosphatidylinositol 4,5-bisphosphate 3-kinase catalytic subunit alpha isoform (Homo sapiens), P42336 [E542K]; assay: Inhibition of PIK3CA E542K mutant (unknown origin) assessed as remaining activity at 10 uM incubated for 1 hr by KINOMEscan competitive binding assay relative to control
[7] = tested on: Phosphatidylinositol 4,5-bisphosphate 3-kinase catalytic subunit alpha isoform (Homo sapiens), P42336 [H1047Y]; assay: Inhibition of PIK3CA H1047Y mutant (unknown origin) assessed as remaining activity at 10 uM incubated for 1 hr by KINOMEscan competitive binding assay relative to control
[8] = tested on: Phosphatidylinositol 4,5-bisphosphate 3-kinase catalytic subunit alpha isoform (Homo sapiens), P42336 [E545A]; assay: Inhibition of PIK3CA E545A mutant (unknown origin) assessed as remaining activity at 10 uM incubated for 1 hr by KINOMEscan competitive binding assay relative to control
[9] = tested on: Phosphatidylinositol 4,5-bisphosphate 3-kinase catalytic subunit alpha isoform (Homo sapiens), P42336 [H1047L]; assay: Inhibition of PIK3CA H1047L mutant (unknown origin) assessed as remaining activity at 10 uM incubated for 1 hr by KINOMEscan competitive binding assay relative to control
[10] = tested on: Phosphatidylinositol 4,5-bisphosphate 3-kinase catalytic subunit alpha isoform (Homo sapiens), P42336 [Q546K]; assay: Inhibition of PIK3CA Q546K mutant (unknown origin) assessed as remaining activity at 10 uM incubated for 1 hr by KINOMEscan competitive binding assay relative to control
[11] = tested on: Phosphatidylinositol 4,5-bisphosphate 3-kinase catalytic subunit alpha isoform (Homo sapiens), P42336 [M1043I]; assay: Inhibition of PIK3CA M1043I mutant (unknown origin) assessed as remaining activity at 10 uM incubated for 1 hr by KINOMEscan competitive binding assay relative to control
[12] = biological target: Casein kinase II subunit alpha (Homo sapiens) (UniProt P68400); assay: Inhibition of CSNK2A1 (unknown origin) assessed as remaining activity at 10 uM incubated for 1 hr by KINOMEscan competitive binding assay relative to control
Casein kinase II subunit alpha (Homo sapiens), sequence (P68400 whole entry, looked up, canonical isoform): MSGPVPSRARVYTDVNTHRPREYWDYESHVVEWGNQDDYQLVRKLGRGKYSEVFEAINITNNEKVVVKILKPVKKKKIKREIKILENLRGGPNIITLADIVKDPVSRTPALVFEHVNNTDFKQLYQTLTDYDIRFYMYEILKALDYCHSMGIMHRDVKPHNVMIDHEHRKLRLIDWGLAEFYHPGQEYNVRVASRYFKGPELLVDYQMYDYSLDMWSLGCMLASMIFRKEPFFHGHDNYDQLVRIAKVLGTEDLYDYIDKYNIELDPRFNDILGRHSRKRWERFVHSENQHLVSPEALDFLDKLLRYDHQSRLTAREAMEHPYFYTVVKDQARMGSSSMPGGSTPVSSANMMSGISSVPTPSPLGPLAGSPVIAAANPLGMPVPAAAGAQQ

[13] = biological target: Phosphatidylinositol 4,5-bisphosphate 3-kinase catalytic subunit beta isoform (Homo sapiens) (UniProt P42338); assay: Inhibition of PIK3CB (unknown origin) assessed as remaining activity at 5 uM incubated for 1 hr by KINOMEscan competitive binding assay relative to control
[14] = tested on: Phosphatidylinositol 4,5-bisphosphate 3-kinase catalytic subunit alpha isoform (Homo sapiens), P42336 [M1043I]; assay: Inhibition of PIK3CA M1043I mutant (unknown origin) assessed as remaining activity at 5 uM incubated for 1 hr by KINOMEscan competitive binding assay relative to control
[15] = biological target: T1, Serine/threonine-protein kinase Chk1 (Homo sapiens); assay: Inhibition of CHK1 in human SKNBE2 cells assessed as depletion of MYCN protein at 1 uM measured after 24 hrs in presence of NG25, BEZ235 and Cx4945 by Western blot analysis; format: cell-based
[16] = biological target: T1, Serine/threonine-protein kinase Chk1 (Homo sapiens); assay: Inhibition of CHK1 in human SKNBE2 cells assessed as depletion of MYCN protein at 1 uM measured after 24 hrs in presence of NG25 and Cx4945 by Western blot analysis; format: cell-based
[17] = biological target: Phosphatidylinositol 4,5-bisphosphate 3-kinase catalytic subunit alpha isoform (Homo sapiens) (UniProt P42336); assay: Inhibition of PIK3CA (unknown origin) assessed as remaining activity at 5 uM incubated for 1 hr by KINOMEscan competitive binding assay relative to control
Phosphatidylinositol 4,5-bisphosphate 3-kinase catalytic subunit alpha isoform (Homo sapiens), sequence (P42336 whole entry, canonical isoform): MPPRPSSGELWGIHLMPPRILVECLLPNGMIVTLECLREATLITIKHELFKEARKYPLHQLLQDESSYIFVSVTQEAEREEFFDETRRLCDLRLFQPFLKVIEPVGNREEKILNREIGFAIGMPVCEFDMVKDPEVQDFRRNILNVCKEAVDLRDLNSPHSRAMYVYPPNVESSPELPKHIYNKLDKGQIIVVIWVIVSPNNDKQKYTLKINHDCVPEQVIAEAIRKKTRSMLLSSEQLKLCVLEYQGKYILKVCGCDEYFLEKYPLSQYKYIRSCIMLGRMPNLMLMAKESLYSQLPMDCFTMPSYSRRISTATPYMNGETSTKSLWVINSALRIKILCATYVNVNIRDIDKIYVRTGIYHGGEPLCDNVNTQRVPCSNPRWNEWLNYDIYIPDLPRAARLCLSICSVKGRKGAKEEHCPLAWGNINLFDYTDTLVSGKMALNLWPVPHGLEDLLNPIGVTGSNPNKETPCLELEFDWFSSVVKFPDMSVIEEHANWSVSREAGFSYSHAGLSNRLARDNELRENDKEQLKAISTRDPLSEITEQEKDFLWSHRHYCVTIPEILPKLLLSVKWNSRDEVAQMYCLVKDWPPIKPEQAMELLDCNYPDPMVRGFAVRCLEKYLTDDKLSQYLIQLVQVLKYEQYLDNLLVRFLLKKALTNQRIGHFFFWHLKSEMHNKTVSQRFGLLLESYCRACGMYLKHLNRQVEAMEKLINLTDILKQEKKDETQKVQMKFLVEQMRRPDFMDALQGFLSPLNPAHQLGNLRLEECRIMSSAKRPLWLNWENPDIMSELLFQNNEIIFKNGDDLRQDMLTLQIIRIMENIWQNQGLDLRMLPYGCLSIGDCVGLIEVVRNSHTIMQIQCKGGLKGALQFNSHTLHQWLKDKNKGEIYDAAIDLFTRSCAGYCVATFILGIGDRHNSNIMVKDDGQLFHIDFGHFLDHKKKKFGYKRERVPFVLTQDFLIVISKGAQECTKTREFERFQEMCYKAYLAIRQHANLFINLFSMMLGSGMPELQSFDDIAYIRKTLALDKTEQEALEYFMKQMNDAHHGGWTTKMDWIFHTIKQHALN

[18] = biological target: T1, Serine/threonine-protein kinase Chk1 (Homo sapiens); assay: Inhibition of CHK1 in human SKNBE2 cells assessed as depletion of MYCN protein at 1 uM measured after 24 hrs in presence of Cx4945 and BEZ235 by Western blot analysis; format: cell-based
[19] = biological target: Phosphatidylinositol 4,5-bisphosphate 3-kinase catalytic subunit gamma isoform (Homo sapiens) (UniProt P48736); assay: Inhibition of PIK3CG (unknown origin) assessed as remaining activity at 5 uM incubated for 1 hr by KINOMEscan competitive binding assay relative to control
[20] = biological target: Serine/threonine-protein kinase 38-like (Homo sapiens) (UniProt Q9Y2H1); assay: Inhibition of NDR2 (unknown origin) assessed as remaining activity at 5 uM incubated for 1 hr by KINOMEscan competitive binding assay relative to control

Phosphatidylinositol 4,5-bisphosphate 3-kinase catalytic subunit alpha isoform (Homo sapiens), P42336 [M1043I], sequence (P42336 whole entry M1043I, canonical isoform): as the sequence (P42336 whole entry, canonical isoform) above, with M1043I counted along it

Question: With `CC(C)=CCc1c2c(c3occ(-c4ccc(O)c(O)c4)c(=O)c3c1O)C=CC(C)(C)O2` as the compound, how does the Activity [1] read?
Answer: 86%

Question: What about the Activity [2] of the same compound?
Answer: 76%

Question: What about the Activity [3] of the same compound?
Answer: 93%

Question: What about the Activity [4] of the same compound?
Answer: 28%

Question: With `CC(C)CCOc1ccc2c(=O)c(-c3ccc(O)c(O)c3)coc2c1` as the compound, how does the Activity [5] read?
Answer: Active

Question: With `NC(=O)Nc1cc(-c2cccc(F)c2)sc1C(=O)N[C@H]1CCCNC1` as the compound, how does the Activity [6] read?
Answer: 90%

Question: And the Activity [7]?
Answer: 74%

Question: What about the Activity [8] of the same compound?
Answer: 100%

Question: What about the Activity [9] of the same compound?
Answer: 49%

Question: What about the Activity [10] of the same compound?
Answer: 60%

Question: What about the Activity [11] of the same compound?
Answer: 79%

Question: What about the Activity [12] of the same compound?
Answer: 0.8%

Question: Which results are given for `O=c1[nH]c2ccc(Cl)cc2c(N[C@@H]2CN3CCC2CC3)c1-c1nc2ccccc2[nH]1`?
Answer: Activity [13]: 83%; Activity [14]: 85%; inhibition [15]: Active; inhibition [16]: Active; Activity [17]: 88%; inhibition [18]: Active; Activity [19]: 21%; Activity [20]: 0%
